Measurements taken from patent US7700559B2, “Gonadotropin releasing hormone analogues conjugates with steroid hormones” (Medical Research Council, priority 2003, dated 2010).
Where two headings read alike, the source gives them in different places. Non-standard residues stand in square brackets, D forms with d. Residues, ends and D or L forms follow the SMILES beside them. *: point of attachment. X1 = C[C@]12CC[C@H]3[C@@H](CCC4=CC(=O)CC[C@@]43C)[C@@H]1CC[C@@H]2C(=O)COC(=O)CCC(=O)*; dPhe(4-Cl) = N[C@H](Cc1ccc(Cl)cc1)C(=O)O; dPhe(4-F) = N[C@H](Cc1ccc(F)cc1)C(=O)O; d2Nal = N[C@H](Cc1ccc2ccccc2c1)C(=O)O; d3Pal = N[C@H](Cc1cccnc1)C(=O)O; ΔPro = O=C(O)[C@@H]1C=CCN1

Tests used:
[1] = system: male marmosets; assay: In vivo male marmoset study, plasma testosterone after s.c. injection; set-up: species or system Callithrix jacchus; conditions: 0.5 mg s.c.
Experimental: (§1) In Vivo Studies in the Male and Female Common Marmoset (Callithrix Jacchus)
Male marmoset studies: To determine duration of action at GnRH receptor, 0.5 mg GnRH antagonist-steroid conjugate was administered as subcutaneous bolus in 1 ml saline at two sites in six adult male marmosets. Testosterone concentrations were monitored by RIA. GnRH antagonist (0.5 mg) was administered as a subcutaneous bolus in 1 ml saline at two sites in three marmosets. Testosterone concentrations were monitored. One 300 μl blood sample was withdrawn on the day prior to GnRH antagonist injection and at 0 hours, 4 hours and 8 hours on the day of injection and on the following 3 days. Three further samples were taken during the subsequent week.

[2] = biological target: progesterone binding globulin (PBG); assay: Plasma protein binding assay, competition with [3H]progesterone in pregnant guinea pig plasma; conditions: for IC50: read-out: IC50, inhibition of [3H]progesterone binding to PBG
Experimental: (§2) Plasma Protein Binding Assay
(§3) Plasma protein binding was determined by the competitive binding of steroid conjugates, in the presence of [1,2,6,7-^3H]progesterone or [^3H]cortisol, to pregnant guinea pig plasma or human pregnant serum respectively. 20 μl serum was diluted with 2 ml dextran-coated charcoal solution (0.25 g dextran T-70, 2.5 g charcoal decolorizing powder, activated acid washed [Merck Ltd., Lutterworth, Leicestershire] in 500 ml PBS) and incubated at room temperature. After 30 mins the suspension was centrifuged at 3000×g for 10 minutes, the supernatant was removed and the pellet was discarded. 100 μl of diluted serum was aliquoted into centrifuge tubes, followed by 1 pmol[^3H]steroid/100 μl PBS. 100 μl PBS (total binding) or 200 pmol/100 μl unlabelled competing ligand ([…]) was added to diluted serum in duplicate. Tubes were vortexed and incubated at room temperature for 1 hour, then for an additional 15 minutes on ice. A further 750 μl dextran-coated charcoal suspension was added and incubated for 10 minutes on ice, followed by centrifugation at 4° C. for 5 minutes. The supernatant fluid was counted.

[3] = system: cycling adult female marmosets; assay: In vivo female marmoset study, inhibition of corpus luteum function; set-up: species or system Callithrix jacchus; conditions: one animal; for duration of the luteal phase after treatment: mid-luteal phase
Experimental: as §1
Female marmoset studies: To identify the effective dose required to inhibit corpus luteum function, 1.0, 0.5 or 0.25 mg of GnRH antagonist-steroid conjugate was administered as subcutaneous bolus in 1 ml saline at two sites during mid-luteal phase. Progesterone concentrations were monitored by RIA. One 300 μl blood sample was withdrawn on the day prior to GnRH antagonist injection. Further blood samples of equal size were withdrawn at 0, 4 and 8 hours on day of injection and on the following 3 days. Blood samples were taken three times per week until the next ovulation.

[4] = biological target: T1, cortisol binding globulin (CBG) (Homo sapiens, UniProt P08185); assay: Plasma protein binding assay, competition with [3H]cortisol in human pregnant serum; conditions: data not shown, read-out: IC50, prevention of [3H]cortisol binding
T1 construct: from tissue; host or cells: human pregnant serum (charcoal-stripped, diluted)
T1 sequence (P08185 23-405): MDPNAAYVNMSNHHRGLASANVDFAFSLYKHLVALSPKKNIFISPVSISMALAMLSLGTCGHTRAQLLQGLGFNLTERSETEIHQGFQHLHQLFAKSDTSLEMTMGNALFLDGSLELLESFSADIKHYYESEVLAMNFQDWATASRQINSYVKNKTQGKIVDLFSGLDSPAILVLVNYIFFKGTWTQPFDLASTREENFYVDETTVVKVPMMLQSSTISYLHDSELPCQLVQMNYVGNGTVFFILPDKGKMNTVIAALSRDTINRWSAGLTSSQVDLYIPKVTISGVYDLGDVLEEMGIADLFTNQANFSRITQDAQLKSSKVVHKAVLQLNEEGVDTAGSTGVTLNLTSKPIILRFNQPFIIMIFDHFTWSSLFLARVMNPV
Experimental: as §2, §3

[5] = In vivo male rabbit study, disappearance of iodinated analogue from whole blood; conditions: rabbit, in vivo, iv
Experimental: In Vivo Studies in the Male Rabbit
To determine biological half-life of GnRH agonist-progesterone conjugates, 0.5 ml saline containing approximately 10,000,000 cpm of iodinated [D-Ala^6]GnRH or [D-Lys^6]GnRH-progesterone conjugate was injected as an i.v. bolus into the ear vein of a male rabbit. Rabbits were sedated with 0.4 ml Aceprom 10 (Milborrow Animal Health, Republic of South Africa) injected intramuscularly 3-4 minutes before start of experiment. A repeat injection was carried out after 2 hours. 1 ml blood samples were collected in heparinized tubes from an indwelling cannula placed in a vein of the contralateral ear. Whole blood was counted directly to determine disappearance from circulation. All experiments were carried out in accordance with Republic of South Africa regulations.

In the case of `CC(=O)N[C@H](Cc1ccc2ccccc2c1)C(=O)N[C@H](Cc1ccc(Cl)cc1)C(=O)N[C@H](Cc1cccnc1)C(=O)N[C@@H](CO)C(=O)N[C@@H](CCCNC(=N)N)C(=O)N[C@H](CCCCN)C(=O)N[C@@H](CC(C)C)C(=O)N[C@@H](CCCNC(=N)N)C(=O)N1CCC[C@H]1C(=O)N[C@H](C)C(N)=O` [antagonist A, [AcD-Nal^1,D-Cpa^2,D-Pal^3,Arg^5,D-Lys^6,D-Ala^10]GnRH, reference compound] (Ac-[d2Nal][dPhe(4-Cl)][d3Pal]SR[dK]LRP[dA]-NH2), the “effect on plasma testosterone concentrations” value [1] is reported as “rapid decline in plasma testosterone concentrations”, the “time by which testosterone had increased again” value [1] is reported as at most 24 h and the “time to which reduction in testosterone concentration was maintained post-injection” value [1] is reported as 8 h.
In the case of `CC(=O)N[C@H](Cc1ccc2ccccc2c1)C(=O)N[C@H](Cc1ccc(Cl)cc1)C(=O)N[C@H](Cc1cccnc1)C(=O)N[C@@H](CO)C(=O)N[C@@H](CCCNC(=N)N)C(=O)N[C@H](CCCCNC(=O)CCC(=O)OCC(=O)[C@H]1CC[C@H]2[C@@H]3CCC4=CC(=O)CC[C@]4(C)[C@H]3CC[C@]12C)C(=O)N[C@@H](CC(C)C)C(=O)N[C@@H](CCCNC(=N)N)C(=O)N1CCC[C@H]1C(=O)N[C@H](C)C(N)=O` [antagonist A-progesterone, AcD-Nal-D-Cpa-D-Pal-Ser-Arg-D-Lys-Leu-Arg-Pro-D-Ala-NH2 conjugated to 21-hydroxyprogesterone 21-succinate at the ε amine of D-Lys at position 6] (Ac-[d2Nal][dPhe(4-Cl)][d3Pal]SR[dK](X1)LRP[dA]-NH2), the IC50 ([2]; listed as antagonist A-progesterone conjugate) is reported as 1000 nM, the IC50 ([2]; listed as antagonist peptide A-progesterone) is reported as 850 nM and the “day by which testosterone had recovered” value [1] is reported as at most 6 days. The “effect on plasma testosterone concentrations” value [1] was “rapidly decreased testosterone concentrations”, the “time to which reduction in testosterone concentration was maintained post-injection” value [1] was “at least 72 hours” and the “luteal regression and subsequent ovulation” value ([3]; 0.25 mg s.c.) was “full luteal regression and subsequent ovulation did not occur”. The plasma progesterone concentrations ([3]; 0.25 mg s.c.) was “transient reduction in plasma progesterone concentrations”, the “duration of the luteal phase after treatment” value ([3]; 0.5 mg s.c., before 21.0±1.2 days) was 11 days and the “duration of the luteal phase after treatment” value ([3]; 1.0 mg s.c., before 24.8±2.2 days) was 8 days.
For `CC(=O)N1CC=C[C@H]1C(=O)N[C@H](Cc1ccc(F)cc1)C(=O)N[C@H](Cc1c[nH]c2ccccc12)C(=O)N[C@@H](CO)C(=O)N[C@@H](Cc1ccc(O)cc1)C(=O)N[C@H](CCCCNC(=O)CCC(=O)OCC(=O)[C@H]1CC[C@H]2[C@@H]3CCC4=CC(=O)CC[C@]4(C)[C@H]3CC[C@]12C)C(=O)N[C@@H](CC(C)C)C(=O)N[C@@H](CCCNC(=N)N)C(=O)N1CCC[C@H]1C(=O)NCC(N)=O` [antagonist B-progesterone, Ac-ΔPro-D-Fpa-D-Trp-Ser-Tyr-D-Lys-Leu-Arg-Pro-Gly-NH2 conjugated to 21-hydroxyprogesterone 21-succinate at the ε amine of D-Lys at position 6] (Ac-[ΔPro][dPhe(4-F)][dW]SY[dK](X1)LRPG-NH2), the IC50 ([2]; listed as antagonist B-progesterone conjugate) was 530 nM and the IC50 ([2]; listed as antagonist peptide B-progesterone) was 450 nM.
In the case of `C[C@]12CCC(=O)C=C1CC[C@@H]1[C@@H]2[C@@H](O)C[C@@]2(C)[C@H]1CC[C@]2(O)C(=O)CO` [cortisol, reference compound], the “inhibition of specific [3H]progesterone binding (specificity)” value [2] is reported as “failure of cortisol to inhibit specific [^3H]progesterone binding” and the IC50 [4] is reported as 6.7 nM.
Molecule `CC(=O)[C@H]1CC[C@H]2[C@@H]3CCC4=CC(=O)CC[C@]4(C)[C@H]3CC[C@]12C` [progesterone, reference compound] has an IC50 [2] of 96 nM and an IC50 [4] of 73 nM.
In the case of [D-Ala^6]GnRH [reference compound], the “second phase half-life (metabolism and renal clearance)” value [5] is reported as 21 ± 3 min.
